TGI data for 8 compounds are collected here from PubChem BioAssay (NCI).

Test systems include SK-OV-3 ovarian; CCRF-CEM leukemia; HOP-62 NSCLC; NCI-H460 lung; HCT-116 colon; ACHN renal; SK-MEL-5 melanoma; MALME-3M melanoma; LOX IMVI melanoma; KM12 colon; U251 CNS; COLO 205 colon; RPMI-8226 leukemia; UACC-62 melanoma; OVCAR-3 ovarian; IGROV1 ovarian; OVCAR-5 ovarian; SF-539 CNS.
Holding throughout (assay): DTP human tumour cell line panel, 48 h

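Briefly, cells in 96-well plates were exposed to five compound concentrations for 48 h, and endpoints were estimated by linear interpolation. TGI: total growth inhibition.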 Where only a bound is given, the exact number is not on record here.

Turning to `CC1=NN(c2ccccc2)C(=O)C1=C1SCCCS1`, the TGI (commonly the concentration at which net growth stops) in the experiment on SK-OV-3 ovarian was over 100 µM; in the experiment with CCRF-CEM leukemia, 39 µM; with HOP-62 NSCLC, over 100 µM; with NCI-H460 lung, over 100 µM; with HCT-116 colon it was 31.7 µM; with ACHN renal, over 100 µM. The TGI in the experiment with SK-MEL-5 melanoma is over 100 µM; in the experiment with MALME-3M melanoma it was over 100 µM; with LOX IMVI melanoma, 55.8 µM; in the experiment with KM12 colon, 66 µM; with U251 CNS it was 37.4 µM; with COLO 205 colon, 29.3 µM. Besides, the TGI with RPMI-8226 leukemia was 46.1 µM; in the experiment on UACC-62 melanoma it was 39.7 µM; in the experiment on OVCAR-3 ovarian, 70.7 µM; in the experiment with IGROV1 ovarian it was over 100 µM; in the experiment with OVCAR-5 ovarian, over 100 µM.

For the compound `COCC12CC(CC1=O)C1C2ON2c3ccccc3C(=O)C12c1ccccc1` (centres undefined), the TGI in the experiment with SK-OV-3 ovarian, in the experiment with CCRF-CEM leukemia, with HOP-62 NSCLC, in the experiment with HCT-116 colon, in the experiment on ACHN renal and in the experiment on SF-539 CNS was over 100 µM throughout. Further, the TGI in the experiment with SK-MEL-5 melanoma, in the experiment with MALME-3M melanoma, in the experiment with U251 CNS, in the experiment on COLO 205 colon, in the experiment on RPMI-8226 leukemia and in the experiment on UACC-62 melanoma was over 100 µM each time. In the experiment with IGROV1 ovarian, this compound displayed a TGI of over 100 µM.

As for `COc1cc(C2C(Cl)C(=O)N2NC(=O)Cc2ccccc2)ccc1O` (centres undefined), the TGI with SK-OV-3 ovarian, in the experiment with CCRF-CEM leukemia, in the experiment with HOP-62 NSCLC, in the experiment with NCI-H460 lung, in the experiment with HCT-116 colon and in the experiment with ACHN renal was over 100 µM throughout. Moreover, the TGI in the experiment on SK-MEL-5 melanoma, in the experiment with MALME-3M melanoma, with LOX IMVI melanoma, in the experiment on KM12 colon, with U251 CNS and with COLO 205 colon was over 100 µM each time. Besides, the TGI with RPMI-8226 leukemia, in the experiment on UACC-62 melanoma, in the experiment on OVCAR-3 ovarian, in the experiment with IGROV1 ovarian and in the experiment with OVCAR-5 ovarian was over 100 µM in each case.

As for `Cn1c2c(cc(-c3ccccc3)c1=O)COc1ccccc1-2`, the TGI with SK-OV-3 ovarian is 86.8 µM; with CCRF-CEM leukemia it was 57.5 µM; in the experiment on HOP-62 NSCLC, over 100 µM; in the experiment on NCI-H460 lung, 70.7 µM; in the experiment on HCT-116 colon, 37.9 µM; in the experiment on ACHN renal, 91.9 µM. Besides, the TGI with SF-539 CNS was over 100 µM; in the experiment on SK-MEL-5 melanoma, 39.9 µM; with MALME-3M melanoma, 50.8 µM; in the experiment with LOX IMVI melanoma it was 31.3 µM; in the experiment on KM12 colon it was 29 µM; with U251 CNS, over 100 µM. Further, the TGI in the experiment with COLO 205 colon was over 100 µM; in the experiment on RPMI-8226 leukemia, 42.1 µM; in the experiment with UACC-62 melanoma, 28.9 µM; with OVCAR-3 ovarian, over 100 µM; in the experiment on IGROV1 ovarian, over 100 µM; in the experiment on OVCAR-5 ovarian it was 54.1 µM.

Turning to `O=C(Nc1cc(Cl)c(Cl)cc1Cl)C(=O)C(C(=O)c1ccc2ccccc2c1)C1OC(=O)c2ccccc21` (centres undefined), the TGI is over 100 µM with SK-OV-3 ovarian; 43.5 µM with HOP-62 NSCLC; 25.9 µM in the experiment with NCI-H460 lung; 34.6 µM with HCT-116 colon; 39.9 µM with ACHN renal; 13 µM with SF-539 CNS. The TGI in the experiment with SK-MEL-5 melanoma amounted to 24.4 µM; in the experiment on MALME-3M melanoma, 30.9 µM; in the experiment on LOX IMVI melanoma, 39.8 µM; in the experiment with KM12 colon it was 31.2 µM; with U251 CNS, 17 µM; with COLO 205 colon, 69.2 µM. Moreover, the TGI is over 100 µM with RPMI-8226 leukemia; 26.9 µM with UACC-62 melanoma; 59.5 µM in the experiment on OVCAR-3 ovarian; 44.7 µM in the experiment with IGROV1 ovarian; 31.9 µM in the experiment on OVCAR-5 ovarian.

With `COc1ccc(C2S/C(=C\c3cccc(O)c3)C(=O)N2NC(=O)Cc2ccccc2)cc1` (centres undefined), the TGI in the experiment with SK-OV-3 ovarian, in the experiment on CCRF-CEM leukemia, with HOP-62 NSCLC, in the experiment on NCI-H460 lung, in the experiment on HCT-116 colon and in the experiment on ACHN renal was over 100 µM in each case. Further, the TGI with SF-539 CNS, in the experiment on SK-MEL-5 melanoma, in the experiment on MALME-3M melanoma, in the experiment with LOX IMVI melanoma, in the experiment on KM12 colon and in the experiment on U251 CNS was over 100 µM throughout. For the same compound, the TGI in the experiment with COLO 205 colon, in the experiment with RPMI-8226 leukemia, in the experiment with UACC-62 melanoma, in the experiment with IGROV1 ovarian and in the experiment on OVCAR-5 ovarian was over 100 µM throughout.

Turning to `Nc1ccc(C(=O)NN2C(=O)C(Cl)C2c2cccc([N+](=O)[O-])c2)cc1` (centres undefined), the TGI was 33.3 µM in the experiment with SK-OV-3 ovarian; 30.4 µM with CCRF-CEM leukemia; 41.6 µM in the experiment with HOP-62 NSCLC; over 100 µM in the experiment with NCI-H460 lung; 34.2 µM in the experiment on HCT-116 colon; 50.9 µM in the experiment with ACHN renal. The TGI amounted to 35.1 µM in the experiment with SF-539 CNS; 34.3 µM with SK-MEL-5 melanoma; 35.6 µM in the experiment with MALME-3M melanoma; 25.1 µM in the experiment on LOX IMVI melanoma; 30.6 µM in the experiment with KM12 colon; 27.3 µM in the experiment on U251 CNS. Also, the TGI with COLO 205 colon turned out to be 35 µM; in the experiment on RPMI-8226 leukemia, 71.2 µM; in the experiment with UACC-62 melanoma, 37.1 µM; with OVCAR-3 ovarian it was 41.8 µM; in the experiment with IGROV1 ovarian it was 30.8 µM; with OVCAR-5 ovarian, 37.7 µM.

In the case of `CCCOCN1COCN=C1NC#N`, the TGI in the experiment with SK-OV-3 ovarian, in the experiment on HOP-62 NSCLC, in the experiment with NCI-H460 lung, with HCT-116 colon, in the experiment on ACHN renal and with SF-539 CNS was over 100 µM each time. Besides, the concentration for total growth inhibition (TGI) was over 100 µM in the experiment with SK-MEL-5 melanoma; over 100 µM in the experiment with MALME-3M melanoma; 47.5 µM in the experiment with LOX IMVI melanoma; over 100 µM with KM12 colon; 43.8 µM with U251 CNS; 32.6 µM in the experiment on COLO 205 colon. The TGI in the experiment on RPMI-8226 leukemia, with UACC-62 melanoma, with OVCAR-3 ovarian, in the experiment on IGROV1 ovarian and in the experiment with OVCAR-5 ovarian was over 100 µM throughout.
